The solubility is how much of the substance goes into solution per volume.

Molecules are shown by their SMILES. In brackets after ≈: the same amount, converted by molar mass.

These results are taken from patent US20220213113A1, “NITROGEN-CONTAINING CONDENSED CYCLIC COMPOUNDS, FLUORESCENCE EMITTERS, ORGANIC ELECTROLUMINESCENT DEVICES, AND MATERIALS FOR ORGANIC ELECTROLUMINESCENT DEVICES” (Samsung Electronics Co., Ltd., priority 2020, published 2022).

The series is described as follows: Evaluation of solubility in mesitylene. Conditions: organic solvent or mixture, thermodynamic from solid; 10 mg compound in test tube, heated at 160° C., mesitylene added until completely dissolved. It counts as physicochemical. As to the method: 10 mg of the obtained Compounds D1 to D9 and Comparative Compound C1 were each placed in a test tube, mesitylene was added thereto, and were heated at a temperature of 160° C. Mesitylene was added thereto until the compounds were completely dissolved and the solubility was calculated.

As for `Cc1cc(C)c(-c2ccc3c(c2)c2c4c5ccccc5n5c6ccc(-c7c(C)cc(C)cc7C)cc6c(c6c7ccccc7n3c62)c45)c(C)c1` [Compound D1], the solubility stood at 2000 µg/mL (≈ 3.12 mM).
The same measure for `CC(C)(C)c1ccc(-c2ccc3c(c2)c2c4c5ccccc5n5c6ccc(-c7ccc(C(C)(C)C)cc7)cc6c(c6c7ccccc7n3c62)c45)cc1` [Compound D2]: 1300 µg/mL (≈ 1.94 mM).
The same measure for `CC(C)(C)c1ccc(-c2ccc3c4c5c6ccccc6n6c7cc(-c8ccc(C(C)(C)C)cc8)ccc7c(c7c8ccccc8n(c3c2)c74)c56)cc1` [Compound D3]: 1000 µg/mL (≈ 1.5 mM).
The value for `CC(C)(C)c1cc(-c2ccc3c4c5c6ccccc6n6c7cc(-c8cc(C(C)(C)C)cc(C(C)(C)C)c8)ccc7c(c7c8ccccc8n(c3c2)c74)c56)cc(C(C)(C)C)c1` [Compound D4] was 3200 µg/mL (≈ 4.1 mM); that for `CC(C)(C)c1cc(-c2ccc3c4c5c6ccc(C(C)(C)C)cc6n6c7cc(-c8cc(C(C)(C)C)cc(C(C)(C)C)c8)ccc7c(c7c8ccc(C(C)(C)C)cc8n(c3c2)c47)c56)cc(C(C)(C)C)c1` [Compound D5] was 10100 µg/mL (≈ 11.3 mM).
Consider `CC(C)(C)c1cc(-c2ccc3c4c5c6cc(C(C)(C)C)ccc6n6c7cc(-c8cc(C(C)(C)C)cc(C(C)(C)C)c8)ccc7c(c7c8cc(C(C)(C)C)ccc8n(c3c2)c74)c56)cc(C(C)(C)C)c1` [Compound D6], for which the solubility was determined as 1000 µg/mL (≈ 1.12 mM).
The value for `c1ccc(-c2cccc(-c3ccccc3)c2-c2ccc3c4c5c6ccccc6n6c7cc(-c8c(-c9ccccc9)cccc8-c8ccccc8)ccc7c(c7c8ccccc8n(c3c2)c74)c56)cc1` [Compound D7] was 3100 µg/mL (≈ 3.6 mM).
The same measure for `CC(C)(C)c1cc(-c2cccc3c4c5c6ccccc6n6c7c(-c8cc(C(C)(C)C)cc(C(C)(C)C)c8)cccc7c(c7c8ccccc8n(c23)c74)c56)cc(C(C)(C)C)c1` [Compound D8]: 10300 µg/mL (≈ 13.2 mM).
The value for `CC(C)(C)c1cc(-c2ccc3c4c5c6cccc(-c7ccccc7)c6n6c7cc(-c8cc(C(C)(C)C)cc(C(C)(C)C)c8)ccc7c(c7c8cccc(-c9ccccc9)c8n(c3c2)c47)c56)cc(C(C)(C)C)c1` [Compound D9] was 3000 µg/mL (≈ 3.21 mM).
